Experimental findings from patent publication US9067937B2 (priority 2012, dated 2015) are described below.

SMILES strings stand for the structures. Where a name gives a salt, the structure may show the parent alone.

For one experiment, the system named is 22Rv1 cells. Put plainly: Cell-based assay, anti-proliferative activity (Cell Counting Kit-8, 72 hours). To be noted: Homo sapiens, 22Rv1, 72 h, read-out: IC50 (μM) (22Rvl). Further details: species or system human. Here is the method:
(§1) Active candidate inhibitors against MELK were evaluated for their target-specific cytotoxicity using 22Rv1, T47D, A549, DU4475 and HT-1197 cells was used for negative control. 100 micro-L of cell suspension was seeded onto 96-well microtiter plate (ViewPlate-96FTC, PerkinElmer). The initial cell concentration of 22Rv1, T47D, A549, DU4475, and HT1197 were 3,000 cells/well, 2,000 cells/well and 2,500 cells/well, respectively. Cellular growth was determined using Cell Counting Kit-8 (DOJINDO) at 72 hours after the exposure of the candidate inhibitors. […] Accurate IC50 values were calculated as described previously.
Background: Tetrazolium dyes change colour on reduction, which living cells bring about.

In another experiment the test system is DU4475 cells. Described as above. Set-up: species or system human. Particulars: Homo sapiens, DU-4475, 72 h, read-out: IC50 (μM) (DU4475). On the procedure:
as §1

The subject of another experiment is T47D cells. Described as above. Set-up: species or system human. Particulars: Homo sapiens, T47D, 72 h, read-out: IC50 (μM) (T47D). Here is the method:
as §1

The next experiment has as its system A549 cells. The experiment is described as above. Further details: species or system human. Particulars: Homo sapiens, A549, 72 h, read-out: IC50 (μM) (A549). On the procedure: as §1
The next experiment concerns HT1197 cells. Put plainly: Cell-based assay, anti-proliferative activity, MELK-negative control (Cell Counting Kit-8, 72 hours). Set-up: species or system human. Particulars: Homo sapiens, HT1197, 72 h, read-out: IC50 (μM) (HTll97). On the procedure: 100 micro-L of cell suspension was seeded onto 96-well microtiter plate (ViewPlate-96FTC, PerkinElmer). The initial cell concentration of 22Rv1, T47D, A549, DU4475, and HT1197 were 3,000 cells/well, 2,000 cells/well and 2,500 cells/well, respectively. Cellular growth was determined using Cell Counting Kit-8 (DOJINDO) at 72 hours after the exposure of the candidate inhibitors. […] Accurate IC50 values were calculated as described previously.

The next experiment concerns the target MELK (Homo sapiens, UniProt Q14680). Briefly: Kinase assay (IMAP fluorescence polarization, FITC-labeled histone H3 peptide). Type of experiment: biochemical. To be noted: 50 micro-M ATP. On the procedure:
MELK activity was determined in the presence or absence of compounds using fluorescein isothiocyanate-labeled (FITC-labeled) histone H3 peptide as a substrate. […] The serially diluted compounds, 0.8 ng/micro-L […] (Carna Biosciences) and 100 nM FITC-labeled histone H3 peptide were reacted in a reaction buffer (20 mM HEPES, 0.01% Tween-20, 0.3 mM MgCl2, 2 mM dithiothreitol, 50 micro-M ATP, pH 7.4) at room temperature for 1 hour. The reaction was stopped by the addition of three fold assay volume of progressive binding solution. […] IC50 values were calculated by nonlinear four parameter fit using SigmaPlot, version 10.0 (Systat Software, Inc.).
On the technique in general: Fluorescence polarisation rises when a labelled molecule tumbles more slowly, as on binding a larger partner.

MELK, sequence (Q14680 whole entry, looked up): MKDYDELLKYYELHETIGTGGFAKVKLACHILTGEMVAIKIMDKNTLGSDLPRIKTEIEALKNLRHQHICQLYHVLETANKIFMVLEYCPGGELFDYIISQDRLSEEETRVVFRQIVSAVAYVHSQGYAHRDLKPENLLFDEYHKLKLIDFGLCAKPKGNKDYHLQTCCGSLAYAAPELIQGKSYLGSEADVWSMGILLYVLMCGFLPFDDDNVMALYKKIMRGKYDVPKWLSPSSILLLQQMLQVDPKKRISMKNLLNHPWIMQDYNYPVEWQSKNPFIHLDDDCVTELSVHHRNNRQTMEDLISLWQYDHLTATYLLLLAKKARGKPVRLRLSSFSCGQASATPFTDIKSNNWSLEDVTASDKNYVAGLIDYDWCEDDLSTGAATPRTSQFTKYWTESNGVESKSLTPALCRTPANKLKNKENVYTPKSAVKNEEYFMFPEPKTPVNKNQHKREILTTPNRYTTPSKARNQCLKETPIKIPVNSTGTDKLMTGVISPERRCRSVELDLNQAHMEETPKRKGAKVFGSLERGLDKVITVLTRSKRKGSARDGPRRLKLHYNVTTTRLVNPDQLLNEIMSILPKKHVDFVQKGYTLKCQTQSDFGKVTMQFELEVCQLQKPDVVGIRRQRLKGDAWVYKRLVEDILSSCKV

`CCC(=O)c1cnc2ccc(-c3cc(Cl)c(O)c(Cl)c3)nc2c1Nc1ccc(N2CCC[C@@H](N)C2)nc1` [Example 214, (R)-1-(4-((6-(3-aminopiperidin-1-yl)pyridin-3-yl)amino)-6-(3,5-dichloro-4-hydroxyphenyl)-1,5-naphthyridin-3-yl)propan-1-one trihydrochloride]: the IC50 was 0.0059 µM in the experiment with 22Rv1 cells; 0.004 µM in the experiment with DU4475 cells; 0.0028 µM in the experiment with T47D cells; 0.013 µM in the experiment with A549 cells; 0.34 µM in the experiment with HT1197 cells; 0.0013 µM against MELK.
Take `CC(=O)c1cnc2ccc(-c3cc(Cl)c(O)c(Cl)c3)nc2c1N[C@H]1CC[C@H](CN(C)CCO)CC1` [Example 48, 1-[6-(3,5-Dichloro-4-hydroxyphenyl)-4-(trans-4-{[(2-hydroxyethyl)(methyl)amino]methyl}-cyclohexylamino)-1,5-naphthyridin-3-yl]ethanone dihydrochloride]: the IC50 turned out to be 0.0092 µM in the experiment with 22Rv1 cells; 0.0034 µM in the experiment with DU4475 cells; 0.0068 µM with T47D cells; 0.02 µM with A549 cells; 0.57 µM in the experiment with HT1197 cells; 0.0006 µM against MELK.
As to `CC(=O)c1cnc2ccc(-c3cc(Cl)c(O)c(Cl)c3)nc2c1N[C@H]1CC[C@H](NC(=O)[C@@H]2CCCN2)CC1` [Example 75, (S)—N-{4-[3-Acetyl-6-(3,5-dichloro-4-hydroxyphenyl)-1,5-naphthyridin-trans-4-ylamino]-cyclohexyl}pyrrolidine-2-carboxamide dihydrochloride], the IC50 worked out at 0.099 µM in the experiment on 22Rv1 cells; 0.021 µM in the experiment on DU4475 cells; 0.036 µM in the experiment on T47D cells; 0.21 µM with A549 cells; 8.4 µM with HT1197 cells; 0.001 µM on MELK.
With `COc1ccc(-c2ccc3ncc(C(C)=O)c(N[C@H]4CC[C@H](CN(C)C)CC4)c3n2)cc1` [Example 84, 1-(4-{trans-4-[(Dimethylamino)methyl]cyclohexylamino}-6-(4-methoxyphenyl)-1,5-naphthyridin-3-yl)ethanone dihydrochloride], the IC50 in the experiment on 22Rv1 cells was determined as 0.58 µM; in the experiment on DU4475 cells, 5.2 µM; in the experiment with T47D cells, 0.25 µM; in the experiment with A549 cells, 2.4 µM; with HT1197 cells, 6 µM; against MELK, 0.031 µM.
For `CC(=O)c1cnc2ccc(-c3ccc(O)c(OC(F)(F)F)c3)nc2c1N[C@H]1CC[C@H](CN(C)C)CC1` [Example 11, 1-(4-{trans-4-[(Dimethylamino)methyl]cyclohexylamino}-6-[4-hydroxy-3-(trifluoromethoxy)-phenyl]-1,5-naphthyridin-3-yl)ethanone dihydrochloride], the IC50 with 22Rv1 cells came to 0.066 µM; in the experiment on DU4475 cells, 0.049 µM; in the experiment with T47D cells, 0.027 µM; with A549 cells, 0.042 µM; in the experiment with HT1197 cells, 0.14 µM; against MELK it was 0.0027 µM.
As to `CN(C)Cc1ccc(Nc2c(S(C)(=O)=O)cnc3ccc(-c4cc(F)c(O)c(Cl)c4)nc23)cc1` [Example 17, 2-Chloro-4-(8-{4-[(dimethylamino)methyl]phenylamino}-7-(methylsulfonyl)-1,5-naphthyridin-2-yl)-6-fluorophenol dihydrochloride], the IC50 turned out to be 0.33 µM with 22Rv1 cells; 0.064 µM in the experiment with DU4475 cells; 0.13 µM with T47D cells; 0.83 µM with A549 cells; 6.6 µM in the experiment with HT1197 cells; 0.0081 µM against MELK.
`CC(=O)c1cnc2ccc(N3CCCC3)nc2c1N[C@H]1CC[C@H](CN2CCCC2)CC1` [Example 78, 1-{6-(Pyrrolidin-1-yl)-4-[trans-4-(pyrrolidin-1-ylmethyl)cyclohexylamino]-1,5-naphthyridin-3-yl}ethanone]: the IC50 in the experiment with 22Rv1 cells came out at 5.6 µM; in the experiment with DU4475 cells, 7.7 µM; with T47D cells, 5.4 µM; in the experiment on A549 cells it was 6.8 µM; with HT1197 cells, 9.8 µM; on MELK it was 2 µM.
Take `CC(=O)c1cnc2ccc(-c3cc(F)c(O)c(Cl)c3)nc2c1N[C@H]1CC[C@H](NC(=O)C(N)C(C)C)CC1` (stereo partly drawn) [Example 69, N-(trans-4-{[3-Acetyl-6-(3-chloro-5-fluoro-4-hydroxyphenyl)-1,5-naphthyridin-4-yl]amino}-cyclohexyl)-2-amino-3-methylbutanamide dihydrochloride]: the IC50 is 0.025 µM in the experiment with 22Rv1 cells; 0.013 µM in the experiment on DU4475 cells; 0.007 µM in the experiment with T47D cells; 0.064 µM in the experiment with A549 cells; 2.5 µM in the experiment with HT1197 cells; 0.0012 µM on MELK.
As for `CC(=O)c1cnc2ccc(-c3cc(Cl)c(O)c(Cl)c3)nc2c1N[C@H]1CC[C@H](NC(=O)C(C)N)CC1` (stereo partly drawn) [Example 73, N-{trans-4-[3-Acetyl-6-(3,5-dichloro-4-hydroxyphenyl)-1,5-naphthyridin-4-ylamino]-cyclohexyl}-2-aminopropanamide dihydrochloride], the IC50 turned out to be 0.027 µM in the experiment on 22Rv1 cells; 0.0043 µM with DU4475 cells; 0.0086 µM with T47D cells; 0.18 µM in the experiment with A549 cells; 100 µM in the experiment with HT1197 cells; 0.0075 µM on MELK.
In the case of `CC(=O)c1cnc2ccc(-c3ccc(O)cc3)nc2c1N[C@H]1CC[C@H](CN(C)C)CC1` [Example 88, 1-(4-{trans-4-[(Dimethylamino)methyl]cyclohexylamino}-6-(4-hydroxyphenyl)-1,5-naphthyridin-3-yl)ethanone dihydrochloride], the IC50 in the experiment with 22Rv1 cells was 0.04 µM; in the experiment on DU4475 cells, 0.021 µM; in the experiment with T47D cells it was 0.031 µM; in the experiment with A549 cells, 0.023 µM; with HT1197 cells, 0.039 µM; against MELK, 0.0045 µM.
Take `CC(=O)c1cnc2ccc(-c3ccc(C#N)nc3)nc2c1N[C@H]1CC[C@H](CN(C)C)CC1` [Example 87, 5-(7-Acetyl-8-{trans-4-[(dimethylamino)methyl]cyclohexylamino}-1,5-naphthyridin-2-yl)picolinonitrile dihydrochloride]: the IC50 in the experiment on 22Rv1 cells worked out at 0.66 µM; with DU4475 cells it was 0.74 µM; in the experiment with T47D cells it was 0.66 µM; with A549 cells, 1.8 µM; in the experiment with HT1197 cells, 2 µM; against MELK, 0.0045 µM.
`CC(=O)c1cnc2ccc(Cl)nc2c1N[C@H]1CC[C@H](CN(C)C)CC1` [Example 1, 1-(6-Chloro-4-{trans-4-[(dimethylamino)methyl]cyclohexylamino}-1,5-naphthyridin-3-yl)-ethanone]: the IC50 in the experiment on 22Rv1 cells is 5 µM; in the experiment with DU4475 cells, 2.5 µM; with T47D cells, 5.3 µM; in the experiment on A549 cells it was 2.7 µM; in the experiment on HT1197 cells, 10 µM; against MELK, 0.31 µM.
`CC(=O)c1cnc2ccc(-c3ccc4[nH]cnc4c3)nc2c1N[C@H]1CC[C@H](CN(C)C)CC1` [Example 55, 1-(6-(1H-Benzo[d]imidazol-5-yl)-4-{trans-4-[(dimethylamino)methyl]cyclohexylamino}-1,5-naphthyridin-3-yl)ethanone trihydrochloride]: the IC50 in the experiment with 22Rv1 cells stood at 0.3 µM; with DU4475 cells, 0.65 µM; with T47D cells, 0.084 µM; in the experiment with A549 cells it was 0.25 µM; in the experiment on HT1197 cells it was 2 µM; on MELK, 0.017 µM.

Broadly, the IC50 is the midpoint of a concentration-inhibition curve.
